According to a melting point compilation (Tetko et al.; mined from patent text by program, amines drawn as free bases though some values may be those of a salt):

Row | Compound | melting point [°C]
1 | COn1c(-c2ccccc2)nc2ccc(Cn3ccnc3)cc21 | 142
2 | CSc1ccc(C=CC(=O)c2ccc(Br)cc2)cc1 | 161
3 | CC(C)CCCC(C)CCOc1cc(CCl)c(OCCC(C)CCCC(C)C)cc1CCl (stereo not drawn) | 55
4 | CC(C)C[C@@H](OC(=O)c1cccnc1)C(=O)O | 101 to 103
5 | COc1ccc(C(=O)NCCCSc2ccncc2)cc1 | 121 to 122
6 | CC1(C)OCC(C(O)CN)O1 (stereo not drawn) | 94 to 96
7 | COc1ccc(C(SC)c2ccc(OC)cc2)cc1 | 62 to 63
8 | Cc1ccccc1NC(=NC#N)NC(NC(=O)CCCc1ccccc1)C(C)(C)C (stereo not drawn) | 153 to 154
9 | CCN(CC)C(N)=C(C#N)C(N)=S | 151 to 152
10 | CCOC(=O)c1cc(O)cc(O)c1 | 128 to 130
11 | O=C(c1ccc(C(F)(F)F)cc1)N1CCC(=Cc2ccc(C3=NCCO3)cc2)CC1 | 142
12 | CC(C)Nc1nccc(C#C[Si](C)(C)C)n1 | 93 to 94
13 | CCC(=C(c1ccc(O)cc1)c1ccc(O)cc1)c1ccc(OCCO)c(OC)c1 | 158 to 159
14 | CC(C)n1cnc2c(NCc3cccnc3)nc(F)nc21 | 131 to 133
15 | O=C(NC1=NCCC1)Nc1ccc(Cl)cc1 | 147 to 150
16 | CC1(C)C=Nc2cc3[nH]c(-c4ccncc4)cc3cc21 | > 300
17 | CCc1nn2c(I)cccc2c1N(CC)CCF | 51.2 to 53.6
18 | N[C@@H](Cc1ccc(F)cc1)[C@H](O)c1ccc(F)cc1 (racemic) | 66 to 67
19 | O=S(=O)(Oc1cccc(OCCC(c2ccccc2)(c2ccccc2)c2ccccc2)c1)c1ccccc1 | 124 to 125
20 | CSc1ccc(CSc2nnc(-c3ccc4ncsc4c3)o2)cc1C(F)(F)F | 122 to 123
21 | OC1(c2ccc(Cl)cc2)CCN(CCCn2cnc3ccccc32)CC1 | 160
22 | CNC1(c2cccs2)CCC(=O)CC1 | 72 to 74

Row | Compound | melting point [°C]
23 | CC(=O)O[C@@H]1[C@@H](OC(C)=O)[C@H](C)O[C@@H](OC[C@H]2O[C@H](Br)[C@H](OC(C)=O)[C@@H](OC(C)=O)[C@@H]2OC(C)=O)[C@@H]1OC(C)=O | 120 to 125
24 | O=C(O)c1ccc(-c2ccncc2)cc1[N+](=O)[O-] | 314 to 316
25 | CCOC(=O)c1c(N)sc(C#N)c1C | 200 to 202
26 | CCOC(=O)NC1N=C(c2ccc(Cl)cc2)c2oc3ccccc3c2NC1=O (stereo not drawn) | > 260
27 | CC1CCC(c2cccc(NC(=O)N3CCC4(CC3)OCCO4)c2)(N2CCN(c3ccccc3)CC2)CC1 (stereo not drawn) | 245 to 247
28 | c1ccc(-c2ccc(Nc3ncc(-c4ccccc4)s3)nc2)cc1 | 231 to 233
29 | c1ccc(C2CN=C3Sc4ccccc4N32)cc1 (stereo not drawn) | 132
30 | N#CC=C(N)c1ccccc1C(F)(F)F | 101 to 103
31 | C=C(C)C(=O)NCC(=O)O | 104
32 | CCCCCCCCCCCCCCOc1ccccc1C(=O)Cc1nnn[nH]1 | 67 to 69
33 | Cc1ccc(SCc2noc(-c3ccccc3)n2)cc1 | 71
34 | CCCCCNS(=O)(=O)NC(=O)OCc1ccccc1 | 142 to 143
35 | CC(O)(C(O)C(O)=Cc1ccccc1)C(O)(Br)C(O)C(O)=Cc1ccccc1 (stereo not drawn) | 277 to 279
36 | Brc1ccc(C=Cc2csc3ccccc23)s1 | 71.5 to 73
37 | Cc1cccc(C2=CCN(CCCCCC(=O)N3Cc4ccccc4C3)CC2)c1C#N | 71
38 | Cc1cc(O)ccc1-c1ccc2cc(O)ccc2c1 | 191 to 193
39 | Cc1nc(N)nc(N)c1C12CC3CC(CC(C3)C1)C2 | 254 to 258
40 | N#CCc1cc(Cl)ncc1[N+](=O)[O-] | 87 to 89
41 | N#Cc1ccc(-c2ccc(F)cc2)nc1Cl | 178
42 | CC(=O)CCc1ccc(C(=O)c2ccc(F)cc2)cc1 | 67 to 68
43 | COc1cc2c(c(OC)c1)OC(C(F)(F)F)C(C(=O)O)=C2 (stereo not drawn) | 215 to 217
44 | Fc1cccc(C(F)(F)F)c1N(CC1CC1)C1=NCCN1 | 126 to 127

Other lines, results leading:

Row | melting point [°C] | Compound
45 | 125 to 127 | O=C(CC1CC2CCC1C2)Nc1ccccc1C(c1ccc(O)cc1)c1ccc(O)cc1 (stereo not drawn)
46 | 161 to 165 | CC(=O)N1CCn2nc(Nc3cc(-c4ccc5c(c4)NC(=O)C5)cn4ccnc34)cc2C1
47 | 45 | CCOC(=O)C(C)(C)Oc1ccc(C(=O)c2cccs2)cc1
48 | 142 to 146 | OCCN1CCC(=C2c3ccccc3Oc3ccc(Br)cc32)CC1
49 | 90 | CC(C)(C)N1CC(COc2cccc3c2SCCC3)OC1=O (stereo not drawn)
50 | 157 | CC(=O)Nc1cccc(Br)n1
51 | 226 to 228 | CSCc1cnc2c(C)cccc2c1O
52 | 156 to 160 | C=C1c2ccccc2CC(=NO)c2ccccc21
53 | 198 to 199 | O=C(NCCc1ccccn1)c1ccc2cc(C(=O)O)[nH]c2c1
54 | 203 to 204 | Cc1cccc(C(=O)Nc2cc(-c3c(-c4ccc(F)c(C)c4)nc4cccnn34)ccn2)c1
55 | 181 to 182 | Cc1ccc(N2CCOCC2)c(NC(N)=S)c1
56 | 126 to 127 | CN=c1[nH]c(-c2cc(C)c(OCCCc3cc(C)no3)c(C)c2)no1
57 | 195 | CCn1c(N)c(C(N)=O)c(=O)c2cnc(Nc3cccc(N4CCOCC4)c3)nc21
58 | 104 to 107 | Cc1ccc(C(=O)c2ccc(Cc3ccc(N)cn3)n2C)cc1
59 | 75 to 76 | CC1(C)CCC(C)(C)c2cc(COc3ccccc3-c3ccccc3C(=O)O)ccc21
60 | 268 to 270 | O=c1cc(-c2ccncc2)nc2n1CCC(c1ccncc1)N2 (stereo not drawn)
61 | 122 | CCN1C(=O)CN(c2ccccc2)C1=S
62 | 240 to 243 | COc1ccc(-n2c(-c3cc(-c4ccc(S(C)(=O)=O)cc4)c(N4CCOCC4)s3)nc3ccccc3c2=O)cc1
63 | 177 to 178 | COc1ccc(S(=O)(=O)N2CCc3cccc(-c4ccco4)c32)cc1
64 | 171 to 173 | O=c1oc(-c2ccc(S(=O)c3ccccc3)cc2)cc(O)c1SCCc1ccccc1 (stereo not drawn)

Row | melting point [°C] | Compound
65 | 134 to 139 | Cc1cc(Nc2ccccc2)nc(-n2nc(C)cc2C)n1
66 | 217 to 218 | Cc1ccc(Br)cc1-c1c(O)c(C)nn(C)c1=O
67 | 81 to 83 | CN(C(=O)c1cccc(C(F)(F)F)c1)c1ccccc1CCCCC(=O)O
68 | 127 to 129 | Cc1nccn1-c1nc(-c2ccc(C(F)(F)F)cc2)c(CCCO)o1
69 | 234 to 236 | O=C1Cc2cc3c(cc2C(c2ccco2)=NN1)OCO3
70 | 122 to 124 | CCN1C(=O)CCc2cc(S(=O)(=O)c3cccc([C@@]4(O)CCO[C@@H](C)C4)c3)ccc21
71 | 249 | CC(C)(C)OC(=O)N1CCC(Nc2nc3ccccc3[nH]2)CC1
72 | 118 to 120 | CC(NCCCO)c1ccc(C2CCC(N(C)C(=O)c3ccc(Cl)cc3)CC2)cc1 (stereo not drawn)
73 | 94 | COc1ccc(NCc2c(F)c(F)c(C(F)(F)F)c(F)c2F)cc1C(=O)O
74 | 73 to 74 | CC(C)Oc1c(CO)cnc2c(C(F)(F)F)cccc12
75 | 162 to 164 | O=C1C=CC(=O)N1c1ccc(Oc2ccc3ccc(Oc4ccc(N5C(=O)C=CC5=O)cc4)cc3c2)cc1
76 | 193 to 195 | Cc1cc(CC(=O)NCc2cccc3c2C(=O)N(C2CCC(=O)NC2=O)C3=O)c(C)o1 (stereo not drawn)
77 | 148 to 149 | COc1cccc(-n2nc(Sc3ccc(Cl)cc3)c(C)c(C#N)c2=O)c1
78 | 216 to 218 | CC(C)COc1ccc(-n2ncc(C(=O)O)c2Cl)cc1C#N
79 | 225 to 227 | COc1cc2c(c3c1OC(C)(C)C3)C(c1cccc(N3CCNC3=O)c1)=NC(C)(C)C2
80 | 145 to 147 | c1ccc(CCN2CCN(c3n[nH]c4c3CCc3sccc3-4)CC2)cc1
81 | 164 to 165 | CN(CCN1CCC(=C(c2ccc(F)cc2)c2ccc(F)cc2)CC1)c1nc(=O)cc[nH]1
82 | 128 to 130 | CCOC(=O)C(=CNc1ccc2nc(C)n(C)c2n1)C(=O)OCC
83 | 122 to 124 | CCCS(=O)(=O)c1ccccc1S(N)(=O)=O
84 | 259 to 261 | CCn1cc(C(=O)O)c(=O)c2cnc(N3CCN(Cc4ccc([N+](=O)[O-])cc4)CC3)nc21

Row | melting point [°C] | Compound
85 | 161 to 162 | COc1cc(/C=C2/C(=O)OC(=O)C2=C(C)C)cc(OC)c1
86 | 102 to 108 | CS(=O)(=O)c1ccc(-c2cc(CCO)sc2-c2ccc(F)cc2)cc1
87 | 83.9 | O=C(c1cccs1)C1CCN(Cc2ccccc2)CC1
88 | 94 to 95 | CCOC(=O)Cc1c2ccccc2n2c(-c3cccs3)nccc12
89 | 231 to 234 | CCOC(=O)c1cc(-c2csc(N(C)S(=O)(=O)c3ccccc3)n2)c(=O)[nH]c1C
90 | 139 to 141 | Cc1nc(N2CCN(Cc3nc(C)n(-c4ccccc4)n3)C2=O)sc1C(=O)NCc1ccccc1
91 | 238 to 240 | CC(=O)Oc1ccc(C=C2SC(=O)NC2=O)cc1
92 | 80 to 85 | CCOC(=O)c1cc(=O)c2c(OCC(O)COc3ccc(CC)cc3)cccc2o1 (stereo not drawn)
93 | 91 to 92 | CCCc1c(OCCCOc2ccc(CC(=O)OC)cc2Br)ccc(C(C)=O)c1O
94 | 133 to 135 | CC(C)OC(=O)C(C)n1c(C(F)(F)F)nc2cc(F)c(-n3c(=O)cc(C(F)(F)F)n(C)c3=O)cc21 (stereo not drawn)
95 | 86 to 87 | COc1ccc(C[C@H](NC(=O)OCc2ccccc2)[C@H]2CO2)cc1
96 | 124 to 126 | COc1ccc(C2(c3cccc(C)n3)OCCCO2)cc1OC
97 | 229 to 231 | Cc1c(OCc2ccccc2)ccc2c(O)c(C(=O)Nc3cccc(Br)c3)c(=O)oc12
98 | > 230 | COc1ccc(S(=O)(=O)c2c(SC)nn3c(N)cc(C)nc23)cc1
99 | 103 to 105 | CNc1nc(-c2cccc(C#Cc3cccnc3)c2)c2cc(OC)c(OC)cc2n1
100 | 85 to 87 | CCOC(=O)[C@H](Cc1ccc([N+](=O)[O-])cc1I)NC(=O)OCc1ccccc1
101 | 73 to 75 | COCCNC(=O)C(C)Oc1ccc(Oc2ccc(C(F)(F)F)cc2)cc1 (stereo not drawn)
102 | 71 | O=Cc1ccc(OCc2ccccc2F)c(Cc2ccccc2F)c1
103 | 143 to 145 | Cc1c(CC(=O)O)c2cc(O)ccc2n1C(=O)c1ccc(F)c(F)c1
